Laboratory results: patent US11591341B2 (ALIGOS THERAPEUTICS, INC., priority 2019, dated 2023)
Like-named read-outs stand apart in the source and are kept apart here.

System: HBV
Assay: HBV-DNA Antiviral Assay Using HepG2.117 Cells (intracellular HBV DNA by qPCR)
Format: cell-based, hepatitis B virus (genotype D)
Description: The following assay procedure describes the HBV antiviral assay, using HepG2.117 cells, which carry a stably integrated genotype D HBV genome under the control of a Tet-off promoter, and intracellular HBV DNA quantification as endpoint. Cell viability is assessed in parallel by measuring the intracellular ATP content using ATPlite (Perkin Elmer).
On day 0, HepG2.117 cells (which are maintained in routine cell culture with doxycycline present in the medium at a final concentration of 1 μg/mL) were seeded in 96-well plates (white with clear bottom) at a density of 2.0×10^4 cells/well (0.1 mL/well) in medium without doxycycline to induce pgRNA transcription and subsequent formation of HBV particles. The cells were incubated at 37° C. and 5% CO2.
On day 1, medium was removed from each well, the test articles were diluted in culture medium without doxcycyline and 100 μL was added to cell culture wells (9 concentrations, 4-fold dilution). For each plate, 6 untreated (merely DMSO) wells were included. The final concentration of DMSO in the culture medium was 2%. Each plate was prepared in duplicate (one for HBV DNA extraction, one for ATPlite measurement). The cells were incubated at 37° C. and 5% CO2 for 3 days.
On day 4, cell viability was assessed using ATPlite and cell lysates were prepared for HBV DNA extraction and subsequent quantification by qPCR.
Medium was removed from each well and 100 μL of 0.33% NP-40 in H2O was added to each well. Plates were sealed, incubated at 4° C. for 5 mins, vortexed extensively and centrifuged briefly. Next, 35 μL of lysate was added to 65 μL QuickExtract DNA Extraction Solution (Epicentre) in a PCR plate for each well. PCR plate was incubated at 65° C. for 6 mins, 98° C. for 2 mins and finally cooled to 4° C. HBV DNA was then quantified by qPCR with HBV-specific primers and probes as specified in Table 3 using the Bio-Rad SSOAdvanced Universal Probes Supermix on a CFX96 machine (Bio-Rad). The PCR cycle program consisted of 95° C. for 3 mins, followed by 40 cycles at 95° C. for 10 sec and 60° C. for 30 sec.
A DNA standard was prepared by dilution of an IDT gBlock corresponding to the amplicon with concentrations ranging from 10^2 to 10^8 copies/input (i.e. per 4 μL) and used to generate a standard curve by plotting Cq values vs. HBV DNA standard concentration. The quantity of HBV DNA in each sample was determined by interpolating from the standard curve.
Cell viability was calculated as follows: % Cell viability=(luminescence value of test sample)/(average luminescence value of 2% DMSO control)×100%. HBV DNA inhibition was calculated as follows: 100−(HBV DNA copy number of test sample)/(average HBV DNA copy number of 2% DMSO control)×100%. No normalization to entecavir was required due to the excellent dynamic window of this assay. The CC50, EC50 and EC90 values were determined by dose-response curves fitted by GraphPad Prism using “log (agonist) vs. response—Variable slope”.

## 13-benzyl-4-(4-bromo-3-chloro- benzoyl)-11-methylene-4,7,9,13- tetrazatricyclo[7.5.0.0^2,7]tetradec-1- ene-8.14-dione [Example 109]
HBV DNA inhibition, HepG2.117 cells, intracellular HBV DNA by qPCR (Table 4), read-out: EC50
  EC50: 0.1 to 0.5 µM

## C[C@@H](NC(=O)c1c2n(c(=O)n1-c1ccc(OC3CC3)cc1)C[C@H](C)N(C(=O)c1ccc(Br)c(Cl)c1)C2)c1ccccc1F (mixture of isomers) [Example 322, (6SR)-7-(4-bromo-3-chloro-benzoyl)-2-[4-(cyclopropoxy)phenyl]-N-[(1R)-1-(2-fluorophenyl)ethyl]-6-methyl-3-oxo-6,8-dihydro-5H-imidazo[1,5-a]pyrazine-1-carboxamide]
Hepatitis B virus, HepG2.117
  EC50: 0.1 to 0.5 µM

## C[C@@H]1Cn2c(c(C(=O)N[C@H](C)c3ccccc3)n(-c3ccc(OC4CC4)cc3)c2=O)CN1C(=O)c1ccc(Br)c(Cl)c1 (mixture of isomers) [Example 331, (6RS)-7-(4-bromo-3-chloro-benzoyl)-2-[4-(cyclopropoxy)phenyl]-6-methyl-3-oxo-N-[(1S)-1-phenylethyl]-6,8-dihydro-5H-imidazo[1,5-a]pyrazine-1-carboxamide]
Hepatitis B virus, HepG2.117
  EC50: 0.5 to 5 µM

## C[C@@H](NC(=O)c1c2n(c(=O)n1-c1ccc(OC3CC3)cc1)C[C@H](C)N(C(=O)c1ccc(Br)c(Cl)c1)C2)c1ccccc1 (mixture of isomers) [Example 332, (6SR)-7-(4-bromo-3-chloro-benzoyl)-2-[4-(cyclopropoxy)phenyl]-6-methyl-3-oxo-N-[(1R)-1-phenylethyl]-6,8-dihydro-5H-imidazo[1,5-a]pyrazine-1-carboxamide]
Hepatitis B virus, HepG2.117
  EC50: 0.1 to 0.5 µM

## C[C@@H]1Cn2c(c(C(=O)N[C@H](C)c3ccccc3F)n(-c3ccc(OC4CC4)cc3)c2=O)CN1C(=O)c1ccc(Br)c(Cl)c1 (mixture of isomers) [Example 335, (6RS)-7-(4-bromo-3-chloro-benzoyl)-2-[4-(cyclopropoxy)phenyl]-N-[(1S)-1-(2-fluorophenyl)ethyl]-6-methyl-3-oxo-6,8-dihydro-5H-imidazo[1,5-a]pyrazine-1-carboxamide]
Hepatitis B virus, HepG2.117
  EC50: 0.5 to 5 µM

## COc1ccc([C@H](C)NC(=O)c2c3n(c(=O)n2-c2ccc(OC4CC4)cc2)C[C@H](C)N(C(=O)c2ccc(Br)c(Cl)c2)C3)cc1 (mixture of isomers) [Example 436, (6SR)-7-(4-bromo-3-chloro-benzoyl)-2-[4-(cyclopropoxy)phenyl]-N-[(1S)-1-(4-methoxyphenyl)ethyl]-6-methyl-3-oxo-6,8-dihydro-5H-imidazo[1,5-a]pyrazine-1-carboxamide]
Hepatitis B virus, HepG2.117
  EC50: < 0.1 µM

## COc1ccc(-n2c(C(=O)N[C@@H]3CCc4ccccc43)c3n(c2=O)CCN(C(=O)c2ccc(Br)c(Cl)c2)C3)cc1 (racemic) [Example 75, 7-(4-bromo-3-chloro-benzoyl)-2-(4-methoxyphenyl)-3-oxo-N-[rac-(1R)-indan-1-yl]-6,8-dihydro-5H-imidazo[1,5-a]pyrazine-1-carboxamide]
Hepatitis B virus, HepG2.117
  EC50: 0.5 to 5 µM

## COc1ccc(-n2c(C(=O)NC(C)C3CC3)c3n(c2=O)CCN(C(=O)c2ccc(Cl)c(Cl)c2)C3)cc1 (racemic) [Example 94, 7-(3,4-dichlorobenzoyl)-2-(4-methoxyphenyl)-3-oxo-N-[rac-(1S)-1-cyclopropylethyl]-6,8-dihydro-5H-imidazo[1,5-a]pyrazine-1-carboxamide]
Hepatitis B virus, HepG2.117
  EC50: > 5 µM

## COc1ccc(-n2c(C(=O)N[C@H](C)C3CC3)c3n(c2=O)CCN(C(=O)c2ccc(Cl)c(Cl)c2)C3)cc1 (racemic) [Example 95, 7-(3,4-dichlorobenzoyl)-2-(4-methoxyphenyl)-3-oxo-N-[rac-(1R)-1-cyclopropylethyl]-6,8-dihydro-5H-imidazo[1,5-a]pyrazine-1-carboxamide]
Hepatitis B virus, HepG2.117
  EC50: > 5 µM

## CC(C)Oc1ccc(-n2c(C(=O)NC(C)c3ccccc3)c3n(c2=O)CCN(C(=O)c2ccc(Br)c(Cl)c2)C3)cc1 (racemic) [Example 118, 7-(4-bromo-3-chloro-benzoyl)-2-(4-isopropoxyphenyl)-3-oxo-N-[rac-(1R)-1-phenylethyl]-6,8-dihydro-5H-imidazo[1,5-a]pyrazine-1-carboxamide]
Hepatitis B virus, HepG2.117
  EC50: 0.1 to 0.5 µM

## CC(C)Oc1ccc(-n2c(C(=O)N[C@@H](C)c3ccccc3)c3n(c2=O)CCN(C(=O)c2ccc(Br)c(Cl)c2)C3)cc1 (racemic) [Example 119, 7-(4-bromo-3-chloro-benzoyl)-2-(4-isopropoxyphenyl)-3-oxo-N-[rac-(1S)-1-phenylethyl]-6,8-dihydro-5H-imidazo[1,5-a]pyrazine-1-carboxamide]
Hepatitis B virus, HepG2.117
  EC50: 0.1 to 0.5 µM

## COc1ccc(-n2c(C(=O)N[C@@H](CO)c3ccccc3)c3n(c2=O)CCN(C(=O)c2ccc(Br)c(Cl)c2)C3)cc1 (racemic) [Example 144, 7-(4-bromo-3-chloro-benzoyl)-2-(4-methoxyphenyl)-3-oxo-N-[rac-(1R)-2-hydroxy-1-phenyl-ethyl]-6,8-dihydro-5H-imidazo[1,5-a]pyrazine-1-carboxamide]
Hepatitis B virus, HepG2.117
  EC50: 0.5 to 5 µM

## COc1ccc(-n2c(C(=O)N[C@H](C)c3ccc(Br)cc3)c3n(c2=O)CCN(C(=O)c2ccc(Br)c(Cl)c2)C3)cc1 (racemic) [Example 145, 7-(4-bromo-3-chloro-benzoyl)-2-(4-methoxyphenyl)-3-oxo-N-[rac-(1R)-1-(4-bromophenyl)ethyl]-6,8-dihydro-5H-imidazo[1,5-a]pyrazine-1-carboxamide]
Hepatitis B virus, HepG2.117
  EC50: 0.1 to 0.5 µM

## COc1ccc(-n2c(C(=O)N[C@@H](c3ccccc3)C3CC3)c3n(c2=O)CCN(C(=O)c2ccc(Br)c(Cl)c2)C3)cc1 (racemic) [Example 149, 7-(4-bromo-3-chloro-benzoyl)-2-(4-methoxyphenyl)-3-oxo-N-[rac-(R)-cyclopropyl(phenyl)methyl]-6,8-dihydro-5H-imidazo[1,5-a]pyrazine-1-carboxamide]
Hepatitis B virus, HepG2.117
  EC50: 0.5 to 5 µM

## COc1ccc(-n2c(C(=O)NC(c3ccccc3)C(C)C)c3n(c2=O)CCN(C(=O)c2ccc(Br)c(Cl)c2)C3)cc1 (racemic) [Example 160, 7-(4-bromo-3-chloro-benzoyl)-2-(4-methoxyphenyl)-3-oxo-N-[rac-(1S)-2-methyl-1-phenyl-propyl]-6,8-dihydro-5H-imidazo[1,5-a]pyrazine-1-carboxamide]
Hepatitis B virus, HepG2.117
  EC50: 0.5 to 5 µM

## C[C@H](NC(=O)c1c2n(c(=O)n1-c1ccc(OC3CC3)cc1)CCN(C(=O)c1ccc(Br)c(Cl)c1)C2)c1ccccc1 (racemic) [Example 168, 7-(4-bromo-3-chloro-benzoy)-2-[4-(cyclopropoxy)phenyl]-3-oxo-N-[rac-(1S)-1-phenylethyl]-6,8-dihydro-5H-imidazo[1,5-a]pyrazine-1-carboxamide]
Hepatitis B virus, HepG2.117
  EC50: 0.1 to 0.5 µM

## COc1ccc(-n2c(C(=O)NC(c3ccccc3)C3CC3)c3n(c2=O)CCN(C(=O)c2ccc(Br)c(Cl)c2)C3)cc1 (racemic) [Example 176, 7-(4-bromo-3-chloro-benzoyl)-2-(4-methoxyphenyl)-3-oxo-N-[rac-(S)-cyclopropyl(phenyl)methyl]-6,8-dihydro-5H-imidazo[1,5-a]pyrazine-1-carboxamide]
Hepatitis B virus, HepG2.117
  EC50: 0.1 to 0.5 µM

## COc1ccc(-n2c(C(=O)N[C@@H](c3ccccc3)C(C)C)c3n(c2=O)CCN(C(=O)c2ccc(Br)c(Cl)c2)C3)cc1 (racemic) [Example 178, 7-(4-bromo-3-chloro-benzoyl)-2-(4-methoxyphenyl)-3-oxo-N-[rac-(1R)-2-methyl-1-phenyl-propyl]-6,8-dihydro-5H-imidazo[1,5-a]pyrazine-1-carboxamide]
Hepatitis B virus, HepG2.117
  EC50: 0.5 to 5 µM
